Assay results from the NIST ThermoML archive (doi:10.1021/acs.jced.8b00560).
Numbers after ± are expanded uncertainties.

Settings: Crystal; DSC

| Structure (SMILES) | Triple point temperature [K] |
| --- | --- |
| NC(=O)c1cccnc1 [3-pyridinecarboxamide] | 398.5 ± 3.1 |
| O=C(O)c1ccccc1 [benzoic acid] | 392.5 ± 3.1 |
